# Assay results published in patent publication US8802700B2 (Vertex Pharmaceuticals Incorporated, priority 2010, dated 2014).
# Target: T1, ΔF508-CFTR (Homo sapiens, UniProt P13569, DEL508-508)
# T1 construct: expressed in transfected cells
# Test: Membrane potential optical assay (FRET voltage-sensor dyes, VIPR), identification of potentiator compounds
# Type: cell-based
# Conditions: Table 3; assay not given
# Procedure, shortened: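 NIH3T3 mouse fibroblasts stably expressing ΔF508-CFTR, cultured 24 h at 27 °C, were loaded with FRET voltage dyes CC2-DMPE and DiSBAC2(3). Double-addition format: first addition of Cl⁻-free (gluconate) medium with or without compound; membrane-potential change read as fluorescence on VIPR II.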
# T1 sequence (P13569 with tags, fused parts or gaps DEL508-508): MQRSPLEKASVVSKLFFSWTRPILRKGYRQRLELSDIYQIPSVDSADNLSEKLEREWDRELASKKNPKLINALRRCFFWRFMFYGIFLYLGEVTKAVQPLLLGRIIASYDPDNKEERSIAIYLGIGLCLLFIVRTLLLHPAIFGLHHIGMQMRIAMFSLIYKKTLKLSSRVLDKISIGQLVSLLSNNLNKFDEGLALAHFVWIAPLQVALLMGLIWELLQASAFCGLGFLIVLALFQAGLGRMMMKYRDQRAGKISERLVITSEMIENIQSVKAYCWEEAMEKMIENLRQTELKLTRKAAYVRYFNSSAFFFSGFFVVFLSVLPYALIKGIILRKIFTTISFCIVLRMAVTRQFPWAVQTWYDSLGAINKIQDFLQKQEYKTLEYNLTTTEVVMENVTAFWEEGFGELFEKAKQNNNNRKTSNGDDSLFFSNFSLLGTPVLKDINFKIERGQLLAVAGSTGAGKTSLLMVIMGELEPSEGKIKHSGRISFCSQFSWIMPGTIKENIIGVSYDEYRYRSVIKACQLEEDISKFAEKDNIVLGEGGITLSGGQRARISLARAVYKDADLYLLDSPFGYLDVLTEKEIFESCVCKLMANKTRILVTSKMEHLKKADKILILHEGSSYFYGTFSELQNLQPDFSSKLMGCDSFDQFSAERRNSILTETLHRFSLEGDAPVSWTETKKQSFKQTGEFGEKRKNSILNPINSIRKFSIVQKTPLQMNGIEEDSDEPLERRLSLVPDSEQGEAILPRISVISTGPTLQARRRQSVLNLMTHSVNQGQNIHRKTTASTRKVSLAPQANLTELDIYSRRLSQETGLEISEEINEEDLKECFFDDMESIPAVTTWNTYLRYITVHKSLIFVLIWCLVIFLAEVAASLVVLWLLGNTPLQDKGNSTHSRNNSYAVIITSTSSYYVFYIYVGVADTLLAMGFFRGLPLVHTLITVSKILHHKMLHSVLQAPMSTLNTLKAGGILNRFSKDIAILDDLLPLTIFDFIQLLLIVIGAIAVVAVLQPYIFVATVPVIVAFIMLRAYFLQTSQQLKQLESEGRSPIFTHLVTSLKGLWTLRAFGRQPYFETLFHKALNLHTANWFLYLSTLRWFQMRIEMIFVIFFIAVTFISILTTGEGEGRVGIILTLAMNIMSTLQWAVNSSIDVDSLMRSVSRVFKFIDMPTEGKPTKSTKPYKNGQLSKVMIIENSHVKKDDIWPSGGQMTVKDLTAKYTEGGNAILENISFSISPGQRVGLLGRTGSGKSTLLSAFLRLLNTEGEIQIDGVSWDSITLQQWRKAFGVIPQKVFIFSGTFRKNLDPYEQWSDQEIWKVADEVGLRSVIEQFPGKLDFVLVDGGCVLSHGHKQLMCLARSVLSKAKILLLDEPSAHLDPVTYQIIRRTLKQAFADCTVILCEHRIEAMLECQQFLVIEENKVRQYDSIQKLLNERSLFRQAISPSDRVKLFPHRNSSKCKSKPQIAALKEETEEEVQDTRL
row,EC50 [µM],SMILES
1,< 10,"CN(C)c1cc(NC(=O)c2c[nH]c3ccccc3c2=O)ccc1C(C)(C)C [Compound 485, N-(3-Dimethylamino-4-tert-butyl-phenyl)-4-oxo-1H-quinoline-3-carboxamide]"
2,< 10,"CC(C)c1ccc(NC(=O)c2c[nH]c3ccccc3c2=O)cc1 [Compound 425, N-(4-isopropylphenyl)-4-oxo-1H-quinoline-3-carboxamide]"
3,< 10,"CCCc1ccc(NC(=O)c2c[nH]c3ccccc3c2=O)cc1 [Compound 226, 4-oxo-N-(4-propylphenyl)-1H-quinoline-3-carboxamide]"

# The remaining lines, values behind:
row,SMILES,EC50 [µM]
1,"CC(C)(C)c1c[nH]c2cc(NC(=O)c3c[nH]c4ccccc4c3=O)c(C(F)(F)F)cc12 [Compound 508, 4-oxo-N-[3-tert-butyl-5-(trifluoromethyl)-1H-indol-6-yl]-1H-quinoline-3-carboxamide]",< 10
2,"N#CCc1ccc(-c2ccccc2NC(=O)c2c[nH]c3ccccc3c2=O)cc1 [Compound 333, N-[2-[4-(cyanomethyl)phenyl]phenyl]-4-oxo-1H-quinoline-3-carboxamide]",< 10

# Same assay, conditions: Table 3; assay not given; read-out: % Activity (% Efficacy, relative efficacy)
row,Emax [%],SMILES
1,< 25,"O=C(Nc1cccc2[nH]ccc12)c1c[nH]c2ccccc2c1=O [Compound 100, N-(1H-indol-4-yl)-4-oxo-1H-quinoline-3-carboxamide]"
2,25 to 100,"CCOc1ccc(OCC)c(NC(=O)c2c[nH]c3ccccc3c2=O)c1 [Compound 264, N-(2,5-diethoxyphenyl)-4-oxo-1H-quinoline-3-carboxamide]"
3,< 25,"CC(=O)c1cccc(NC(=O)c2c[nH]c3ccccc3c2=O)c1 [Compound 328, N-(3-acetylphenyl)-4-oxo-1H-quinoline-3-carboxamide]"
4,25 to 100,"CCN(CC)c1ccc(NC(=O)c2c[nH]c3ccccc3c2=O)c(C)c1 [Compound 82, N-(4-diethylamino-2-methyl-phenyl)-4-oxo-1H-quinoline-3-carboxamide]"
5,25 to 100,"Cc1cc(OC(F)(F)F)ccc1NC(=O)c1c[nH]c2ccccc2c1=O [Compound 538, N-[2-methyl-4-(trifluoromethoxy)phenyl]-4-oxo-1H-quinoline-3-carboxamide]"
6,25 to 100,"CN(C)c1cc(NC(=O)c2c[nH]c3ccccc3c2=O)ccc1C(C)(C)C [Compound 485, N-(3-Dimethylamino-4-tert-butyl-phenyl)-4-oxo-1H-quinoline-3-carboxamide]"
7,25 to 100,"O=C(Nc1cc2[nH]ccc2cc1Cl)c1c[nH]c2ccccc2c1=O [Compound 32, N-(5-chloro-1H-indol-6-yl)-4-oxo-1H-quinoline-3-carboxamide]"
8,< 25,"Cc1ccc(C(N)=O)c(NC(=O)c2c[nH]c3ccccc3c2=O)c1 [Compound 335, N-(2-carbamoyl-5-methyl-phenyl)-4-oxo-1H-quinoline-3-carboxamide]"
9,25 to 100,"Cc1cccc(C)c1NC(=O)c1c[nH]c2ccccc2c1=O [Compound 315, N-(2,6-dimethylphenyl)-4-oxo-1H-quinoline-3-carboxamide]"
10,25 to 100,"CC(C)c1ccc(NC(=O)c2c[nH]c3ccccc3c2=O)cc1 [Compound 425, N-(4-isopropylphenyl)-4-oxo-1H-quinoline-3-carboxamide]"
11,25 to 100,"CCCc1ccc(NC(=O)c2c[nH]c3ccccc3c2=O)cc1 [Compound 226, 4-oxo-N-(4-propylphenyl)-1H-quinoline-3-carboxamide]"
12,25 to 100,"Cc1c(NC(=O)c2c[nH]c3ccccc3c2=O)cccc1C(F)(F)F [Compound 387, N-[2-methyl-3-(trifluoromethyl)phenyl]-4-oxo-1H-quinoline-3-carboxamide]"
13,25 to 100,"Cc1cc(C(C)(C)C)c(O)cc1NC(=O)c1c[nH]c2ccccc2c1=O [Compound 518, N-(5-hydroxy-2-methyl-4-tert-butyl-phenyl)-4-oxo-1H-quinoline-3-carboxamide]"
14,25 to 100,"COc1ccc(NC(=O)c2c[nH]c3ccccc3c2=O)cc1 [Compound 439, N-(4-methoxyphenyl)-4-oxo-1H-quinoline-3-carboxamide]"
15,25 to 100,"Cc1csc(-c2ccccc2NC(=O)c2c[nH]c3ccccc3c2=O)c1 [Compound 151, N-[2-(4-methyl-2-thienyl)phenyl]-4-oxo-1H-quinoline-3-carboxamide]"
16,25 to 100,"CCc1ccc(N(C)C)cc1NC(=O)c1c[nH]c2ccccc2c1=O [Compound 409, N-(5-dimethylamino-2-ethyl-phenyl)-4-oxo-1H-quinoline-3-carboxamide]"
17,25 to 100,"O=C(Nc1cccc(O)c1)c1c[nH]c2ccccc2c1=O [Compound 144, N-(3-hydroxyphenyl)-4-oxo-1H-quinoline-3-carboxamide]"

# More lines, now with the values behind:
row,SMILES,Emax [%]
1,"O=C(Nc1ccc2c3c([nH]c2c1)CCCC3)c1c[nH]c2ccccc2c1=O [Compound 244, 4-oxo-N-(6,7,8,9-tetrahydro-5H-carbazol-2-yl)-1H-quinoline-3-carboxamide]",25 to 100
2,"CCOc1ccc2[nH]cc(C(=O)Nc3cc(O)c(C(C)(C)C)cc3C(C)(C)C)c(=O)c2c1 [Compound 524, 6-ethoxy-N-(5-hydroxy-2,4-ditert-butyl-phenyl)-4-oxo-1H-quinoline-3-carboxamide]",25 to 100
3,"CC(C)(C)OC(=O)[C@H]1CCCN1c1ccc(NC(=O)c2c[nH]c3ccccc3c2=O)c(C(F)(F)F)c1 [Compound 540, (R)-tert-butyl 1-(4-(4-oxo-1,4-dihydroquinoline-3-carboxamido)-3-(trifluoromethyl)phenyl)pyrrolidine-2-carboxylate]",> 100
4,"O=C(Nc1ccc2c(c1)CCCC2)c1c[nH]c2ccccc2c1=O [Compound 375, 1,4-dihydro-N-(1,2,3,4-tetrahydronaphthalen-6-yl)-4-oxoquinoline-3-carboxamide]",25 to 100
5,"C=Cc1ccc(NC(=O)c2c[nH]c3ccccc3c2=O)cc1 [Compound 452, 4-oxo-N-(4-vinylphenyl)-1H-quinoline-3-carboxamide]",25 to 100
6,"O=C(Nc1ccc2nccnc2c1)c1c[nH]c2ccccc2c1=O [Compound 443, 4-oxo-N-quinoxalin-6-yl-1H-quinoline-3-carboxamide]",< 25
7,"O=C(Nc1ccc(N2CCC2)cc1C(F)(F)F)c1c[nH]c2ccccc2c1=O [Compound 689, N-[4-azetidin-1-yl-2-(trifluoromethyl)phenyl]-4-oxo-1H-quinoline-3-carboxamide]",25 to 100
8,"CC(C)(C)c1cc(NC(=O)c2c[nH]c3ccccc3c2=O)c(O)c(C(C)(C)C)c1 [Compound 136, N-(2-hydroxy-3,5-ditert-butyl-phenyl)-4-oxo-1H-quinoline-3-carboxamide]",25 to 100
9,"CCCCOc1ccccc1NC(=O)c1c[nH]c2ccccc2c1=O [Compound 177, N-(2-butoxyphenyl)-4-oxo-1H-quinoline-3-carboxamide]",> 100
10,"O=C(Nc1ccccc1Oc1ccccc1)c1c[nH]c2ccccc2c1=O [Compound 413, 4-oxo-N-(2-phenoxyphenyl)-1H-quinoline-3-carboxamide]",25 to 100
11,"O=C(Nc1ccc(N2CCN(CCO)CC2)cc1C(F)(F)F)c1c[nH]c2ccccc2c1=O [Compound 673, N-[4-[4-(2-hydroxyethyl)piperazin-1-yl]-2-(trifluoromethyl)phenyl]-4-oxo-1H-quinoline-3-carboxamide]",25 to 100
12,"CCc1cc(C(C)(C)C)c(O)cc1NC(=O)c1c[nH]c2ccc(F)cc2c1=O [Compound 649, N-(2-ethyl-5-hydroxy-4-tert-butyl-phenyl)-6-fluoro-4-oxo-1H-quinoline-3-carboxamide]",25 to 100
13,"O=C(Nc1cc(C(F)(F)F)cc(C(F)(F)F)c1)c1c[nH]c2ccccc2c1=O [Compound 154, N-[3,5-bis(trifluoromethyl)phenyl]-4-oxo-1H-quinoline-3-carboxamide]",< 25
14,"O=C(Nc1ccc(C23CC4CC(CC(C4)C2)C3)cc1)c1c[nH]c2ccccc2c1=O [Compound 455, N-[4-(1-adamantyl)phenyl]-4-oxo-1H-quinoline-3-carboxamide]",25 to 100
15,"COc1cccc(OC)c1-c1cc2cc[nH]c2cc1NC(=O)c1c[nH]c2ccccc2c1=O [Compound 404, N-[5-(2,6-dimethoxyphenyl)-1H-indol-6-yl]-4-oxo-1H-quinoline-3-carboxamide]",25 to 100
16,"O=C(Nc1ccc(C2CCCCC2)c(O)c1)c1c[nH]c2ccc(F)cc2c1=O [Compound 651, N-(4-cyclohexyl-3-hydroxy-phenyl)-6-fluoro-4-oxo-1H-quinoline-3-carboxamide]",25 to 100
17,"O=C(Nc1ccccc1-c1cc2ccccc2[nH]1)c1c[nH]c2ccccc2c1=O [Compound 38, N-[2-(1H-indol-2-yl)phenyl]-4-oxo-1H-quinoline-3-carboxamide]",25 to 100
18,"CC(C)(C)c1c[nH]c2cc(NC(=O)c3c[nH]c4ccccc4c3=O)c(C(F)(F)F)cc12 [Compound 508, 4-oxo-N-[3-tert-butyl-5-(trifluoromethyl)-1H-indol-6-yl]-1H-quinoline-3-carboxamide]",25 to 100
19,"O=C(Nc1cccc(C(F)(F)F)c1)c1c[nH]c2ccccc2c1=O [Compound 164, 4-oxo-N-[3-(trifluoromethyl)phenyl]-1H-quinoline-3-carboxamide]",25 to 100
20,"Nc1cc(NC(=O)c2c[nH]c3ccccc3c2=O)c(Cl)cc1Cl [Compound 242, N-(5-amino-2,4-dichloro-phenyl)-4-oxo-1H-quinoline-3-carboxamide]",25 to 100
21,"CCOC(=O)NC1CCCc2ccc(NC(=O)c3c[nH]c4ccccc4c3=O)cc21 (stereo not shown) [Compound 482, [7-[(4-Oxo-1H-quinolin-3-yl)carbonylamino]tetralin-1-yl]aminoformic acid ethyl ester]",25 to 100
22,"CC(C)c1ccc(NC(=O)OC(C)(C)C)cc1NC(=O)c1c[nH]c2ccccc2c1=O [Compound 60, [4-isopropyl-3-[(4-oxo-1H-quinolin-3-yl)carbonylamino]phenyl]aminoformic acid tert-butyl ester]",25 to 100
23,"N#CCc1ccc(-c2ccccc2NC(=O)c2c[nH]c3ccccc3c2=O)cc1 [Compound 333, N-[2-[4-(cyanomethyl)phenyl]phenyl]-4-oxo-1H-quinoline-3-carboxamide]",25 to 100
24,"CCc1cccc2c(=O)c(C(=O)Nc3cc(O)c(C(C)(C)C)cc3F)c[nH]c12 [Compound 605, 8-ethyl-N-(2-fluoro-5-hydroxy-4-tert-butyl-phenyl)-4-oxo-1H-quinoline-3-carboxamide]",< 25
25,"CC(C)(CO)c1ccc(NC(=O)c2c[nH]c3ccccc3c2=O)cc1 [Compound 5, N-[4-(2-hydroxy-1,1-dimethyl-ethyl)phenyl]-4-oxo-1H-quinoline-3-carboxamide]",25 to 100
26,"O=C(Nc1ccc(C(F)(F)F)cn1)c1c[nH]c2ccccc2c1=O [Compound 74, 4-oxo-N-[5-(trifluoromethyl)-2-pyridyl]-1H-quinoline-3-carboxamide]",< 25
27,"COc1ccc2[nH]cc(C(=O)Nc3cc(O)c(C(C)(C)C)cc3C(C)(C)C)c(=O)c2c1 [Compound 496, N-(5-hydroxy-2,4-ditert-butyl-phenyl)-6-methoxy-4-oxo-1H-quinoline-3-carboxamide]",25 to 100
